Assay results as given in patent US8324198B1, “Monocarbams” (Pfizer Inc., priority 2008, dated 2012).
Converted amounts (≈) assume the structure as drawn. Structures can show the parent of a compound that is named as a salt.

Legend:
P. aeruginosa 1091-05 [1] = assay: In vitro MIC, P. aeruginosa 1091-05; type: cell-based; conditions: for MIC: Pseudomonas aeruginosa, 109105, read-out: Pa 1091-05 MIC
[2] = test system: Pseudomonas aeruginosa 1045-06; assay: In vitro MIC, Pseudomonas aeruginosa 1045-06; type: cell-based; conditions: strain 1045-06, resistant to carbapenems, aminoglycosides and fluoroquinolones
Excerpt: (§1) Culture collection strain 1045-06 is resistant to several classes of known antimicrobial agents including carbapenems, aminoglycosides and fluoroquinolones, while strains 1000-02 and 3167 are resistant to cephalosporins. Strain PA0200 is a derivative of laboratory strain PAO1 that lacks a functional MexAB-oprM efflux pump.

P. aeruginosa 1091-05 [3] = assay: Murine respiratory tract infection model against P. aeruginosa 1091-05 (PD50); type: in vivo; conditions: for RTI PD50 vs. Pa 1091-05 (95% confidence interval): immunosuppressed C3H/HeN mice, intranasal challenge, subcutaneous BID for two days from 4 h post-challenge, lethality over ten days; for Efficacy relative to Comparative Example A (PD50, 95% confidence intervals): murine respiratory tract infection model, P. aeruginosa 1091-05
Description: For this model, C3H/HeN mice were immunosuppressed with cyclophosphamide given orally at 150 mg/kg and 100 mg/kg on days −4 and −1 relative to challenge, respectively. Mice were anesthetized with isoflurane (5% in oxygen) and the bacterial inoculum was given to each mouse via intranasal instillation in a 40 μL volume (˜2.8×10^3 cfu per mouse). Mice were dosed with compound administered via subcutaneous injection beginning at four hours post-challenge, and continuing for two days of BID therapy.
PD50 is a measure of the ability of a compound to protect mice from a lethal infection.

[4] = test system: Klebsiella pneumoniae 1000-02; assay: In vitro MIC, Klebsiella pneumoniae 1000-02; type: cell-based; conditions: strain 1000-02, resistant to cephalosporins
Excerpt: as §1

[5] = test system: Acinetobacter baumanii 3167; assay: In vitro MIC, Acinetobacter baumanii 3167; type: cell-based; conditions: strain 3167, resistant to cephalosporins
Excerpt: as §1

[6] = test system: Pseudomonas aeruginosa PA0200 MexAB-oprM KO; assay: In vitro MIC, Pseudomonas aeruginosa PA0200 MexAB-oprM KO; type: cell-based; conditions: PAO1, read-out: MIC Pseudomonas aeruginosa PA0200 MexAB-oprM KO
Excerpt: as §1

| Molecule | Pa 1091-05 MIC (P. aeruginosa 1091-05 [1]) [µg/mL] | MIC Pseudomonas aeruginosa 1045-06 [2] [µg/mL] | RTI PD50 vs. Pa 1091-05 (95% confidence interval) (P. aeruginosa 1091-05 [3]; disodium salt) | Efficacy relative to Comparative Example A (PD50, 95% confidence intervals) (P. aeruginosa 1091-05 [3]) | MIC Klebsiella pneumoniae 1000-02 [4] [µg/mL] | MIC Acinetobacter baumanii 3167 [5] [µg/mL] | MIC [6] [µg/mL] | MIC (P. aeruginosa 1091-05 [1]) [µg/mL] | RTI PD50 vs. Pa 1091-05 (95% confidence interval) (P. aeruginosa 1091-05 [3]) [mg/kg] |
| --- | --- | --- | --- | --- | --- | --- | --- | --- | --- |
| 2-({[(1Z)-2-{[(3S)-1-({[4-(2-amino-2-oxoethyl)-3-(5-hydroxy-4-oxo-1,4-dihydropyridin-2-yl)-5-oxo-4,5-dihydro-1H-1,2,4-triazol-1-yl]sulfonyl}carbamoyl)-2-oxoazetidin-3-yl]amino}-1-(2-amino-1,3-thiazol-4-yl)-2-oxoethylidene]amino}oxy)-2-methylpropanoic acid, disodium salt [Example 4] | 125 | 500 | 25.0 (24.8-25.2) mg/kg | significantly more efficacious relative to Comparative Example A | 1000 | 1000 | – | – | – |
| CCn1c(-c2cc(=O)c(O)c[nH]2)nn(S(=O)(=O)NC(=O)N2C[C@H](NC(=O)C(=NOC(C)(C)C(=O)O)c3csc(N)n3)C2=O)c1=O (stereo in doubt) [Example 1, 2-({[(1E)-1-(2-amino-1,3-thiazol-4-yl)-2-{[(3S)-1-({[4-ethyl-3-(5-hydroxy-4-oxo-1,4-dihydropyridin-2-yl)-5-oxo-4,5-dihydro-1H-1,2,4-triazol-1-yl]sulfonyl}carbamoyl)-2-oxoazetidin-3-yl]amino}-2-oxoethylidene]amino}oxy)-2-methylpropanoic acid] | – | – | – | – | – | – | < 62.5 | – | – |
| CO/N=C(\C(=O)N[C@@H]1C(=O)N2C(C(=O)[O-])=C(C[N+]3(C)CCCC3)CS[C@H]12)c1csc(N)n1 [Cefepime, reference compound] | – | – | – | – | – | – | – | 2000 (≈ 4160 µM) | 22 |
| CN(C)CCn1c(-c2cc(=O)c(O)c[nH]2)nn(S(=O)(=O)NC(=O)N2C[C@H](NC(=O)/C(=N\OC(C)(C)C(=O)O)c3csc(N)n3)C2=O)c1=O [Example 2, 2-({[(1Z)-1-(2-amino-1,3-thiazol-4-yl)-2-({(3S)-1-[({4-[2-(dimethylamino)ethyl]-3-(5-hydroxy-4-oxo-1,4-dihydropyridin-2-yl)-5-oxo-4,5-dihydro-1H-1,2,4-triazol-1-yl}sulfonyl)carbamoyl]-2-oxoazetidin-3-yl}amino)-2-oxoethylidene]amino}oxy)-2-methylpropanoic acid] | – | – | – | – | – | – | 188 (≈ 264 µM) | – | – |
| CC(C)(O/N=C(\C(=O)N[C@H]1CN(C(=O)NS(=O)(=O)n2nc(-c3cc(=O)c(O)c[nH]3)n(C[C@@H](O)CO)c2=O)C1=O)c1csc(N)n1)C(=O)[O-].CC(C)(O/N=C(\C(=O)N[C@H]1CN(C(=O)NS(=O)(=O)n2nc(-c3cc(=O)c(O)c[nH]3)n(C[C@@H](O)CO)c2=O)C1=O)c1csc(N)n1)C(=O)[O-].[Na+].[Na+] [Example 3, 2-({[(1Z)-1-(2-amino-1,3-thiazol-4-yl)-2-({(3S)-1-[({4-[(2R)-2,3-dihydroxypropyl]-3-(5-hydroxy-4-oxo-1,4-dihydropyridin-2-yl)-5-oxo-4,5-dihydro-1H-1,2,4-triazol-1-yl}sulfonyl)carbamoyl]-2-oxoazetidin-3-yl}amino)-2-oxoethylidene]amino}oxy)-2-methylpropanoic acid, disodium salt] | 125 | 500 | 20.6 (8.7-32.52) mg/kg | significantly more efficacious relative to Comparative Example A | 500 | 500 | – | – | – |
| CC(C)(O/N=C(\C(=O)N[C@H]1CN(C(=O)NS(=O)(=O)n2nc(-c3cc(=O)c(O)c[nH]3)n(C[C@H](O)CO)c2=O)C1=O)c1csc(N)n1)C(=O)[O-].CC(C)(O/N=C(\C(=O)N[C@H]1CN(C(=O)NS(=O)(=O)n2nc(-c3cc(=O)c(O)c[nH]3)n(C[C@H](O)CO)c2=O)C1=O)c1csc(N)n1)C(=O)[O-].[Na+].[Na+] [Example 5, 2-({[(1Z)-1-(2-amino-1,3-thiazol-4-yl)-2-({(3S)-1-[({4-[(2S)-2,3-dihydroxypropyl]-3-(5-hydroxy-4-oxo-1,4-dihydropyridin-2-yl)-5-oxo-4,5-dihydro-1H-1,2,4-triazol-1-yl}sulfonyl)carbamoyl]-2-oxoazetidin-3-yl}amino)-2-oxoethylidene]amino}oxy)-2-methylpropanoic acid, disodium salt] | 125 | 250 | 18.6 (8.94-28.29) mg/kg | significantly more efficacious relative to Comparative Example A | 500 | 500 | – | – | – |
| C[C@@H](O)Cn1c(-c2cc(=O)c(O)c[nH]2)nn(S(=O)(=O)NC(=O)N2C[C@H](NC(=O)/C(=N\OC(C)(C)C(=O)[O-])c3csc(N)n3)C2=O)c1=O.C[C@@H](O)Cn1c(-c2cc(=O)c(O)c[nH]2)nn(S(=O)(=O)NC(=O)N2C[C@H](NC(=O)/C(=N\OC(C)(C)C(=O)[O-])c3csc(N)n3)C2=O)c1=O.[Na+].[Na+] [Example 6] | 125 | 250 | 32.7 (23.7-42.0) mg/kg | significantly more efficacious relative to Comparative Example A | 500 | 1000 | – | – | – |
| C[C@H](O)Cn1c(-c2cc(=O)c(O)c[nH]2)nn(S(=O)(=O)NC(=O)N2C[C@H](NC(=O)/C(=N\OC(C)(C)C(=O)[O-])c3csc(N)n3)C2=O)c1=O.C[C@H](O)Cn1c(-c2cc(=O)c(O)c[nH]2)nn(S(=O)(=O)NC(=O)N2C[C@H](NC(=O)/C(=N\OC(C)(C)C(=O)[O-])c3csc(N)n3)C2=O)c1=O.[Na+].[Na+] [Example 7, 2-({[(1Z)-1-(2-amino-1,3-thiazol-4-yl)-2-({(3S)-1-[({3-(5-hydroxy-4-oxo-1,4-dihydropyridin-2-yl)-4-[(2S)-2-hydroxypropyl]-5-oxo-4,5-dihydro-1H-1,2,4-triazol-1-yl}sulfonyl)carbamoyl]-2-oxoazetidin-3-yl}amino)-2-oxoethylidene]amino}oxy)-2-methylpropanoic acid, disodium salt] | 125 | 250 | 15.7 (8.45-22.96) mg/kg | significantly more efficacious relative to Comparative Example A | 250 | 1000 | – | – | – |
| CCCn1c(-c2cc(=O)c(O)c[nH]2)nn(S(=O)(=O)NC(=O)N2C[C@H](NC(=O)/C(=N\OC(C)(C)C(=O)O)c3csc(N)n3)C2=O)c1=O [Example 9, 2-({[(1Z)-1-(2-amino-1,3-thiazol-4-yl)-2-{[(3S)-1-({[3-(5-hydroxy-4-oxo-1,4-dihydropyridin-2-yl)-5-oxo-4-propyl-4,5-dihydro-1H-1,2,4-triazol-1-yl]sulfonyl}carbamoyl)-2-oxoazetidin-3-yl]amino}-2-oxoethylidene]amino}oxy)-2-methylpropanoic acid] | – | – | – | – | – | – | < 62.5 | – | – |
| CC(C)(O/N=C(\C(=O)N[C@H]1CN(C(=O)NS(=O)(=O)n2nc(-c3cc(=O)c(O)c[nH]3)n(CC(O)CO)c2=O)C1=O)c1csc(N)n1)C(=O)O (stereo partly drawn) [Example 10, 2-({[(1Z)-1-(2-amino-1,3-thiazol-4-yl)-2-{[(3S)-1-({[4-(2,3-dihydroxypropyl)-3-(5-hydroxy-4-oxo-1,4-dihydropyridin-2-yl)-5-oxo-4,5-dihydro-1H-1,2,4-triazol-1-yl]sulfonyl}carbamoyl)-2-oxoazetidin-3-yl]amino}-2-oxoethylidene]amino}oxy)-2-methylpropanoic acid] | – | – | – | – | – | – | 250 (≈ 350 µM) | – | – |
| CC(C)(O/N=C(\C(=O)N[C@H]1CN(C(=O)NS(=O)(=O)n2nc(-c3cc(=O)c(O)c[nH]3)n(CCN3CCCC3)c2=O)C1=O)c1csc(N)n1)C(=O)O [Example 11, 2-({[(1Z)-1-(2-amino-1,3-thiazol-4-yl)-2-{[(3S)-1-({[3-(5-hydroxy-4-oxo-1,4-dihydropyridin-2-yl)-5-oxo-4-(2-pyrrolidin-1-ylethyl)-4,5-dihydro-1H-1,2,4-triazol-1-yl]sulfonyl}carbamoyl)-2-oxoazetidin-3-yl]amino}-2-oxoethylidene]amino}oxy)-2-methylpropanoic acid] | – | – | – | – | – | – | 16000 (≈ 21700 µM) | – | – |
| COCCn1c(-c2cc(=O)c(O)c[nH]2)nn(S(=O)(=O)NC(=O)N2C[C@H](NC(=O)/C(=N\OC(C)(C)C(=O)O)c3csc(N)n3)C2=O)c1=O [Example 15, 2-({[(1Z)-1-(2-amino-1,3-thiazol-4-yl)-2-{[(3S)-1-({[3-(5-hydroxy-4-oxo-1,4-dihydropyridin-2-yl)-4-(2-methoxyethyl)-5-oxo-4,5-dihydro-1H-1,2,4-triazol-1-yl]sulfonyl}carbamoyl)-2-oxoazetidin-3-yl]amino}-2-oxoethylidene]amino}oxy)-2-methylpropanoic acid, disodium salt] | – | – | – | – | – | – | – | 500 | >70.8 |
| C[C@@H](O)[C@H]1C(=O)N2C(C(=O)O)=C(SCCN=CN)C[C@H]12 [Imipenem, reference compound] | – | – | – | – | – | – | – | 500 (≈ 1670 µM) | 1.04 |
